Measurements reported in patent publication US5721366A, “Platelet aggregation inhibitors” (G. D. Searle & Co, priority 1995, dated 1998).
pIC50: −log10 of the molar value. Structures can show the parent of a compound that is named as a salt.

Key:
[1] = system: Dog platelet aggregation (platelet-rich plasma); experiment: In-Vitro Platelet Aggregation in PRP (Dog), collagen-induced; type: cell-based; details: for pIC50: collagen-induced aggregation (33 μg/ml final), 37° C.; for inhibition at 1 µM: collagen-induced aggregation
Procedure: In-Vitro Platelet Aggregation in PRP--(Dog)
Healthy male or female dogs were fasted for 8 hours prior to drawing blood; then 60 ml whole blood was collected using a butterfly needle and 30 cc plastic syringe with 6 ml of 0.129M buffered sodium citrate (3.8%) (drawn from a minimum of 3 dogs and blood was pooled). The syringe was rotated carefully as blood was drawn to mix the citrate. Platelet-rich plasma (PRP) was prepared by centrifugation at 975×g for 3.17 minutes at room temperature, allowing the centrifuge to coast to a stop without braking. The PRP was removed from the blood with a plastic pipette and placed in a plastic capped 50 ml Corning conical sterile centrifuge tube which was held at room temperature. Platelet poor plasma (PPP) was prepared by centrifuging the remaining blood at 2000×g for 15 minutes at room temperature allowing the centrifuge to coast to a stop without braking. The platelet count in the PRP was routinely 2-4×10^8 platelets per ml. 400 μl of the PRP preparation and 50 μl of the compound to be tested or saline were preincubated for 2 minutes at 37° C. in a BioData aggregometer (BioData, Horsham, Pa.). 50 μl of collagen (diluted 1:3 with 5% dextrose and water solution, 33 μg/ml final concentration, equine tendon, Chronolog, Havertown, Pa.) was added to the cuvettes and the aggregation was monitored for 3 minutes. All compounds are tested in duplicate.
Results are calculated as follows:
Percent of control=[(maximal OD minus initial OD of compound) divided by (maximal OD minus initial OD of control saline)]×100. The % inhibition=100-(percent of control).
(§1) (NT in the following table indicates not tested.)

[2] = system: Human platelet aggregation (platelet-rich plasma); experiment: Inhibition of Human Platelet Aggregation (PRP), collagen-induced; type: cell-based; details: collagen-induced aggregation (4 μg/ml final), 37° C.
Procedure: Inhibition of Human Platelet Aggregation (PRP)
Platelet rich plasma was prepared from citrated whole blood (3.8% Na citrate, 1:10 in 30 ml blood) withdrawn from the antecubital vein (n=1). PRP was prepared by centrifugation (Sorvall RC3C, DuPont, Wilmington, Del.) of the whole blood at 1000×g for 3 min, allowing the centrifuge to stop without braking. Platelet poor plasma (PPP) was prepared by centrifugation of PRP at 2000×g for 10 min. […] Aggregation was measured in a 4 channel aggregometer (model PAP-4C, Bio/Data Corp., Hatboro, Pa.). Aliquots of PPP were used to standardize the aggregometer for measurement of maximum light transmission. Platelet aggregation was measured as an increase in light transmission.
PRP (430 μl aliquot) was preincubated with 50 μl of various concentrations of compound (dissolved in 10% ETOH/water at a concentration of 10^-3 M. Compounds were diluted to desired concentration with 0.9% NaCl) for 2 min at 37° C., with stirring at 900 rpm, in the aggregometer. The stock collagen (Chronolog, Havertown, Pa., equine tendon) was diluted 1:10 with a 5% dextrose and water solution. The vehicle control response was obtained by adding 20 μl diluted collagen to the untreated aliquot of PRP+50 μl saline. Final collagen concentration was 4 μg/ml. Aggregation was recorded for 3 min following the addition of collagen. […] Percent inhibition was calculated by comparing treated and control samples. IC50 's were calculated graphically from dose-response curves. Average values and standard errors were calculated using the IC50 's of the individual experiments. Statistical analyses were done by an unequal variance, unpaired Student's t-test [Minitab Reference Manual, Minitab Inc., State College, Pa. (1988)]. Statistical significance was assumed when p<0.05 was found.
as §1

[3] = Canis lupus familiaris, Platelet

Row | Compound | pIC50 [1, 3] | also measured
1 | C=C[C@H](CC(=O)O)NC(=O)CC1CCN(c2ccc(C(=N)N)cc2)C1=O (stereo partly drawn) [Example 2, 3(S)-[[[1-[4-(aminoiminomethyl)phenyl]-2-oxo-3-pyrrolidinyl]acetyl]amino]-4-pentenoic acid, monohydrochloride] | 7.14 | 
2 | N=C(N)c1ccc(N2CCC(NC(=O)NCCC(=O)O)C2=O)cc1 (stereo not shown) [Example 38, 3-[[[[1-[4-(aminoiminomethyl)phenyl]-2-oxo-3-pyrrolidinyl]amino]carbonyl]amino]propionic acid, trifluoroacetate.] | 6.90 | 
3 | C=C[C@H](CC(=O)O)NC(=O)CC1CCCN(c2ccc(C(=N)N)cc2)C1=O (single isomer, unassigned; isomer b) [Example 34L] | 7.23 | 
4 | N=C(N)c1ccc(N2CCCC(CC(=O)NCCC(=O)O)C2=O)cc1 (single isomer, unassigned; isomer b) [Example 34B, 3-[[[1-[4-(aminoiminomethyl)phenyl]-2-oxo-3-piperidinyl]acetyl]amino]propanoic acid, enantiomerically enriched isomer B] | 6.62 | 
5 | C[C@H](CC(=O)O)NC(=O)NC1CCN(c2ccc(C(=N)N)cc2)C1=O (single isomer, unassigned; isomer b) [Example 45] | 7.41 | 
6 | N=C(N)c1ccc(N2CCC(CC(=O)NC(CC(=O)O)c3ccccc3)C2=O)cc1 (stereo not shown) [Example 12, 3-[[[1-[4-(aminoiminomethyl)phenyl]-2-oxo-3-pyrrolidinyl]acetyl]amino]-3-phenylpropionic acid] | 6.41 | pIC50 ([2]; Homo sapiens, Platelet): 6.54
7 | C=C[C@H](CC(=O)O)NC(=O)CC1CCN(c2ccc(C(=N)N)cc2)C1=O (single isomer, unassigned; isomer a) [Example 4, 3S-[[[1-[4-(aminoiminomethyl)phenyl]-2-oxo-3-pyrrolidinyl]acetyl]amino]-4-pentenoic acid, monohydrochloride, enantiomerically enriched isomer A.] |  | pIC50 [1]: 7.28; pIC50 [2]: 7.26
8 | C#C[C@H](CC(=O)O)NC(=O)CC1CCCN(c2ccc(C(=N)N)cc2)C1=O (single isomer, unassigned; isomer b) [Example 34N] | 7.23 | 
9 | N=C(N)c1ccc(N2CCCC(CC(=O)NC(CC(=O)O)c3ccsc3)C2=O)cc1 (single isomer, unassigned; isomer b) [Example 34C, 3-[[[1-[4-(aminoiminomethyl)phenyl]-2-oxo-3-piperidinyl]acetyl]amino]-3-(3-thienyl)propanoic acid, enantiomerically enriched isomer B] | 6.80 | 
10 | N=C(N)c1ccc(N2CCC(NC(=O)NCCC(=O)O)C2=O)cc1 (single isomer, unassigned; isomer a) [Example 41, 3-[[[[1-[4-(aminoiminomethyl)phenyl]-2-oxo-3-pyrrolidinyl]amino]carbonyl]amino]propanoic acid trifluoroacetate. Enantiomerically Enriched Isomer A.] |  | inhibition at 1 µM ([1]; Canis lupus familiaris): 30%; pIC50 ([2]; Homo sapiens, Platelet): 6.82
11 | N=C(N)c1ccc(N2CCCC(CC(=O)NC(C#Cc3ccccc3)CC(=O)O)C2=O)cc1 (stereo not shown) [Example 28, 3-[[[1-[4-(aminoiminomethyl)phenyl]-2-oxo-3-piperidinyl]acetyl]amino]-5-phenyl-4-pentynoic acid.] | 6.77 | pIC50 ([2]; Homo sapiens, Platelet): 6.72
12 | N=C(N)c1ccc(N2CCC(CC(=O)NC[C@H](NC(=O)OCc3ccccc3)C(=O)O)C2=O)cc1 (stereo partly drawn) [Example 16, 3-[[[1-[4-(aminoiminomethyl)phenyl]-2-oxo-3-pyrrolidinyl]acetyl]amino]-N-[(phenylmethoxy)carbonyl]-L-alanine] | 7.00 | pIC50 ([2]; Homo sapiens, Platelet): 6.51
13 | CC(C)(C)C#CC(CC(=O)O)NC(=O)CC1CCCN(c2ccc(C(=N)N)cc2)C1=O (stereo not shown) [Example 26, 3-[[[1-[4-(aminoiminomethyl)phenyl]-2-oxo-3-piperidinyl]acetyl]amino]-6,6-dimethyl-4-heptynoic acid] | 6.23 | 
14 | C=C[C@H](CC(=O)O)NC(=O)CC1CCCN(c2ccc(C(=N)N)cc2)C1=O (single isomer, unassigned; isomer a) [Example 34J] |  | inhibition at 1 µM ([1]; Canis lupus familiaris): 13%
15 | COc1ccc(C(CC(=O)O)NC(=O)CC2CCCN(c3ccc(C(=N)N)cc3)C2=O)cc1 (stereo not shown) [Example 34I, 3-[[[1-[4-(aminoiminomethyl)phenyl]-2-oxo-3-piperidinyl]acetyl]amino]-3-(4-methoxyphenyl)propanoic acid] | 6.74 | 
16 | C#CC(CC(=O)O)NC(=O)CC1CCCN(c2ccc(C(=N)N)cc2)C1=O (stereo not shown) [Example 24, 3-[[[1-[4-(aminoiminomethyl)phenyl]-2-oxo-3-piperidinyl]acetyl]amino]-4-pentynoic acid.] | 6.72 | 
17 | N=C(N)c1ccc(N2CCC(CC(=O)NC(CC(=O)O)c3ccoc3)C2=O)cc1 (single isomer, unassigned) [Example 51] | 7.30 | 
18 | N=C(N)c1ccc(N2CCCC(CC(=O)NC(CC(=O)O)c3ccco3)C2=O)cc1 (mixture of isomers) [Example 34G, 3-[[[1-[4-(aminoiminomethyl)phenyl]2-oxo-3-piperidinyl]acetyl]amino]-3-(2-furanyl]propanoic acid, diastereomers] | 6.72 | 
19 | CC(CC(=O)O)NC(=O)CC1CCCN(c2ccc(C(=N)N)cc2)C1=O (stereo not shown) [Example 30, 3-[[[1-[4-(aminoiminomethyl)phenyl]-2-oxo-3-piperidinyl]acetyl]amino]-butanoic acid] | 6.42 | pIC50 ([2]; Homo sapiens, Platelet): 6.55
20 | N=C(N)c1ccc(N2CCC(NC(=O)NCCC(=O)O)C2=O)cc1 (single isomer, unassigned; isomer b) [Example 43, 3-[[[[1-[4-(aminoiminomethyl)phenyl]-2-oxo-3-pyrrolidinyl]amino]carbonyl]amino]propanoic acid trifluoroacetate. Enantiomerically Enriched Isomer B.] | 7.05 | 
21 | 3[S]-[[[[1-[4-(aminoiminomethyl)phenyl]-2-oxo-3-pyrrolidinyl]amino]carbonyl]amino]benzenepropanoic acid trifluoroacetate. Enantiomerically Enriched Isomer B [Example 47] |  | pIC50 [1]: 7.21
22 | N=C(N)c1ccc(N2CCCC(CC(=O)NC(CC(=O)O)c3ccccc3)C2=O)cc1 (stereo not shown) [Example 32, 3-[[[1-[4-(aminoiminomethyl)phenyl]-2-oxo-3-piperidinyl]acetyl]amino]-3-phenylpropanoic acid] | 6.60 | pIC50 ([2]; Homo sapiens, Platelet): 6.80
23 | N=C(N)c1ccc(N2CCCC(CC(=O)NC(CC(=O)O)c3ccoc3)C2=O)cc1 (single isomer, unassigned; isomer b) [Example 34E] | 7.15 | 
24 | C[Si](C)(C)C#C[C@H](CC(=O)O)NC(=O)CC1CCCN(c2ccc(C(=N)N)cc2)C1=O (stereo partly drawn) [Example 22, 3S-[[[1-[4-(aminoiminomethyl)phenyl]-2-oxo-3-piperidinyl]acetyl]amino]-5-(trimethylsilyl)-4-pentynoic acid] | 6.74 | 
25 | N=C(N)c1ccc(N2CCC(NC(=O)NC[C@H](NC(=O)OCc3ccccc3)C(=O)O)C2=O)cc1 (single isomer, unassigned; isomer b) [Example 49] | 7.27 | 
26 | C#C[C@H](CC(=O)O)NC(=O)CC1CCN(c2ccc(C(=N)N)cc2)C1=O (stereo partly drawn) [Example 14, 3(S) -[[[1-[4-(aminoiminomethyl)phenyl]-2-oxo-3-pyrrolidinyl]acetyl]amino]-4-pentynoic acid] | 6.92 | 
27 | C=C[C@H](CC(=O)O)NC(=O)CC1CCCN(c2ccc(C(=N)N)cc2)C1=O (stereo partly drawn) [Example 34, 3(S)-[[[1-[4-(aminoiminomethyl)phenyl]-2-oxo-3-piperidinyl]acetyl]amino]-4-pentenoic acid.] | 6.92 | 
